# Experimental data: patent US20140235518A1, “AQUEOUS LIQUIDS CONTAINING AN ORGANIC COMPOUND AND AN N-(2-HYDROXYALKYL) SUBSTITUTED N-ALKYLAMINE” (TAMINCO, priority 2011, published 2014)
# Assays:
# [1] = Interfacial tension by drop weight measurements; type: physicochemical; details: 22° C.
# Description: Drop weight measurements (i.e., the weight of a drop of one fluid as it is carefully released into another immiscible fluid) were used to evaluate the air/liquid and liquid/liquid interfacial tensions of 5% BDEA(aq) (butyldiethanolamine with C/OH ratio of 4), 5% HBHEEA(aq) (hydroxybutyl hydroxyethyl ethylamine with C/OH ratio of 4) and 2% HBHEBA(aq) (hydroxybutyl hydroxyethyl butylamine with C/OH ratio of 5) solutions at RT (22° C.). Note that a solution of 2% wt/wt of HBHEBA in water takes several minutes to form. About 1% wt/wt of HBHEBA dissolves in water fairly rapidly with stirring, while up to approximately 3% wt/wt can eventually be dissolved if stirring is continued for a longer period of time. The following relationship (oftentimes referred to as Tate's law) is used to relate drop weight to the interfacial tension between the drop fluid and the fluid being “dropped” into:
# γ=mactual(1−ρfluid/ρdrop)g/(2πr)
# Drop weights were taken 10 at a time and averaged. Three replicates of the drop average were taken to insure accuracy. […] The Table below contains drop weight data of some aqueous AAA solutions as dropped into air and into decane (ρ=0.73 g/ml):
# The data for DI water dropped into air is used to standardize the pipette. The surface tension of water/air at 22° C. and 1 bar absolute P is 72 dynes/cm.
# Using this value in the equation for DI water gives an orifice radius of 1.2 mm (0.12 cm). All of the measurements were carried out with the same pipette. Using the value of 1.2 mm as the radius of the pipette orifice allows for accurate calculation of the unknown interfacial tensions. Both BDEA and HBHEEA have the same MW and the same total C/OH ratio of 4, but both molecules display distinct interfacial tension properties. […] AAA's of identical total C/OH ratio and identical MW but with differing distribution of hydrophobic and hydrophilic regions display unique properties with respect to solubility, viscosity, volatility, impact on emulsion stability, and assistance to biostability.
# [2] = test system: microbial population of spoiled coolant; assay: Biostability comparison, soluble oil emulsion diluted in spoiled coolant (CFU by oxygen pressure); type: cell-based; details: diluted 20 to 1 in spoiled coolant water
# Description: (§1) The 100 ml test solutions were initially challenged with 10 ml of a lab maintained rancid soluble oil containing 50% tramp oil with an overall biological count of 8,800,000 CFU/ml. The degree of biological growth throughout the experiment was measured by the HMB-IV (Biotech International, Needville, Tex.) method for determination of the aerobic and facultative biological activity within a liquid metalworking fluid sample. This test method is based on the principle that most of the microorganisms in challenged metalworking fluids produce catalase while they are active. The addition of a known amount of a formulated HMB-IV oxidizing agent (hydrogen peroxide, buffer and chelating chemicals) to a standard volume of the sample fluid in a sealed test tube allows for an amount of oxygen proportional to the amount of active bacteria to be produced via the chemical reaction between active catalase enzyme and the hydrogen peroxide. A calibrated device is used to measure the amount of oxygen that is produced via the change in the pressure of the headspace within a test tube over a period of 15 minutes.
# A challenge test comparison of the following soluble oil emulsion was carried out over several days.
# The above concentrate formula was used with either 3 or 5 parts of one of the test amines. The soluble oil concentrate was diluted 20 to 1 in stagnant water made up from spoiled coolant (cultured from an original stock of rancid metalworking coolant used in a ferrous alloy cutting operation) which was in turn prepared by diluting 10% of a 60,000,000 CFU per ml of stock spoiled coolant with 90% tap water that had been allowed to air out for 24 hours. The challenge solution, which in this experiment is a control, was calculated to initially contain 6,000,000 CFU per ml microbial population. By the next day, the microbial content of the challenge solution had increased to 13,000,000 CFU per ml. By the end of the trial, the microbial content of the challenge solution had declined to 7,400,000 CFU. The concentration of microbes was determined by oxygen pressure development as described in Example 4.
# [3] = Comparative emulsion stability (p-terphenyl oil / 20% aqueous AAA); type: physicochemical; details: 10 g p-terphenyl oil + 10 g 20% wt/wt aqueous AAA, 10 s vortex
# Source text: The emulsion prepared with aqueous N-butyldiethanolamine (BDEA, C/OH ratio=4) was compared to an otherwise identical emulsion prepared with 20% aqueous N-(2-hydroxybutyl)-N-(2-hydroxyethyl)-N-ethylamine (HBHEEA, C/OH ratio=4).
# [4] = test system: microorganisms in challenged metalworking fluids; assay: Challenge with amines as sole biostabilizing agent (HMB-IV catalase/oxygen pressure CFU); type: cell-based; details: formula with 4.97% amine at 4% aqueous dilution; for CFU one hour after first challenge: CFU/ml
# Description: (§2) The biostability of three fluids containing different amines was assessed in a challenge test format. The three amines used were DCHA (dicyclohexylamine), DBAE (dibutylaminoethanol) and HBHEBA (hydroxybutyl hydroxyethyl butylamine). The test solutions were approximately 100 ml in volume and maintained at RT. The following formula was used at 4% aqueous dilution for testing:
# as §1, with “The addition of a known amount of a formulated HMB-IV oxidizing agent (hydrogen peroxide, buffer and chelating chemicals) to a standard volume of the sample fluid in a sealed test tube allows for an amount of oxygen proportional to the amount of active bacteria to be produced via the chemical reaction between active catalase enzyme and the hydrogen peroxide.” left out
# (§3) The second challenge at 3 days was 20 ml of a rancid semi-synthetic coolant with a CFU/ml reading of 10,000,000. A volume of 20 ml was necessary to bring the volume back to the original 100 ml (each CFU/ml measurement removes 10 ml of coolant). The third challenge at 10 days was an additional 20 ml of the 10,000,000 CFU/ml rancid semi-synthetic coolant.
# [5] = Condition of challenged test solutions (pH, putrification odor, appearance); details: formula with 4.97% amine at 4% aqueous dilution
# Description: as §2, §3
# [6] = Dissolution of HBHEBA in water; type: physicochemical; details: RT
# Description: Drop weight measurements (i.e., the weight of a drop of one fluid as it is carefully released into another immiscible fluid) were used to evaluate the air/liquid and liquid/liquid interfacial tensions of 5% BDEA(aq) (butyldiethanolamine with C/OH ratio of 4), 5% HBHEEA(aq) (hydroxybutyl hydroxyethyl ethylamine with C/OH ratio of 4) and 2% HBHEBA(aq) (hydroxybutyl hydroxyethyl butylamine with C/OH ratio of 5) solutions at RT (22° C.). Note that a solution of 2% wt/wt of HBHEBA in water takes several minutes to form. About 1% wt/wt of HBHEBA dissolves in water fairly rapidly with stirring, while up to approximately 3% wt/wt can eventually be dissolved if stirring is continued for a longer period of time. The following relationship (oftentimes referred to as Tate's law) is used to relate drop weight to the interfacial tension between the drop fluid and the fluid being “dropped” into: […]
# [7] = 5% (aq) solution dropped into Air
# [8] = 5% (aq) solution dropped into Decane
# [9] = AAA @ 3% in concentrate (1500 ppm diluted)
# [10] = AAA @ 5% in concentrate (2500 ppm diluted)
SMILES,"γ Drop to Fluid (air/liquid interfacial tension) [1, 7] [dynes/cm]","γ Drop to Fluid (liquid/liquid interfacial tension) [1, 8] [dynes/cm]","CFU per ml after 1 day [2, 9] [CFU per ml × 10^6]","CFU per ml after 4 days [2, 9] [CFU per ml × 10^6]","CFU per ml after 1 day [2, 10] [CFU per ml × 10^6]","CFU per ml after 4 days [2, 10] [CFU per ml × 10^6]",CFU @ 3 days (2nd challenge) [4],CFU @ 7 days (4 days after 2nd challenge) [4],CFU @ 10 days (3rd challenge) [4],CFU @ 14 days (4 days after 3rd challenge) [4],CFU @ 25 days (7 days after fresh dilution) [4],CFU @ 90 days (60 day idle period simulation) [4],CFU one hour after first challenge [4],pH of test solution @ 25 days [5],pH of test solution @ 90 days [5],pH of test solution after first challenge [5],also measured
"CCCCN(CCO)CCO [BDEA, N-butyldiethanolamine]",41,13,11,9.0,3.5,2.1,–,–,–,–,–,–,–,–,–,–,Time to complete phase separation of emulsion [3]: ≤ 30 min; Time to significant oil coalescence of emulsion [3]: ≤ 15 min
"CCCCN(CCO)CCCC [DBAE, N,N-dibutylaminoethanol]",–,–,–,–,–,–,"310,000 CFU","2,100,000 CFU","4,000,000 CFU","2,500,000 CFU","2,900,000 CFU","8,100,000 CFU","740,000 CFU",8.2,7.7,9.4,–
"C1CCC(NC2CCCCC2)CC1 [DCHA, dicyclohexylamine]",–,–,–,–,–,–,"410,000 CFU","3,000,000 CFU","3,900,000 CFU","3,900,000 CFU","4,000,000 CFU","33,000,000 CFU","630,000 CFU",8.2,7.7,9.1,–
"CCCCN(CCO)CC(O)CC (stereo not shown) [HBHEBA, N-(2-hydroxybutyl)-N-(2-hydroxyethyl)-N-butylamine]",–,–,7.3,5.0,3.0,1.2,"140,000 CFU","3,300,000 CFU","4,500,000 CFU","2,900,000 CFU","1,700,000 CFU","7,700,000 CFU","610,000 CFU",8.2,7.6,9.1,γ Drop to Fluid (air/liquid interfacial tension) ([1]; 2% (aq) solution dropped into Air): 34 dynes/cm; γ Drop to Fluid (liquid/liquid interfacial tension) ([1]; 2% (aq) solution dropped into Decane): 8 dynes/cm; Amount that can eventually be dissolved in water ([6]; stirring continued for a longer period of time): approximately 3 % wt/wt; Amount dissolving in water fairly rapidly ([6]; with stirring): About 1 % wt/wt
"CCC(O)CN(CC)CCO (stereo not shown) [HBHEEA, N-(2-hydroxybutyl)-N-(2-hydroxyethyl)-ethylamine]",37,17,–,–,–,–,–,–,–,–,–,–,–,–,–,–,Emulsion stability (visual) [3]: remained completely opaque with no visible signs of coalescence for several hours
